Laboratory results published in ChEMBL document CHEMBL5726195, “Pharmaceutically active pyrazine derivatives” (2017).
pIC50: −log10 of the molar value.

Target: T1, Serine/threonine-protein kinase Chk1 (Homo sapiens, UniProt O14757)
T1 sequence (O14757 whole entry): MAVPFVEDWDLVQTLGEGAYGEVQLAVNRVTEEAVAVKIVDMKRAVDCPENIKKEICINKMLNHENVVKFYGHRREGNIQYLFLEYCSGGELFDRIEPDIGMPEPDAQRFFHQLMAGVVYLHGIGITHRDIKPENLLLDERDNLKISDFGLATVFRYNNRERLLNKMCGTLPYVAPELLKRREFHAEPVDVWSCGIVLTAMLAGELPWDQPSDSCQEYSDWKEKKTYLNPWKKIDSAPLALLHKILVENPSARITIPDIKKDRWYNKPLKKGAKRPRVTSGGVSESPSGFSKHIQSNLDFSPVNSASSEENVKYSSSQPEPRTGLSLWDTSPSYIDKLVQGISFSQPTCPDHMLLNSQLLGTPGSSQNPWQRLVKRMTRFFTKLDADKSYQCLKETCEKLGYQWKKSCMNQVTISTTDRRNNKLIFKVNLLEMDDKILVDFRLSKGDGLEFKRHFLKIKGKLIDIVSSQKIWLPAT
Assay: Kinase Inhibition Asssay: Reaction Buffer:Base Reaction buffer: 20 mM Hepes (pH 7.5), 10 mM MgCl2, 1 mM EGTA, 0.02% Brij35, 0.02 mg/ml BSA, 0.1 mM Na3VO4, 2 mM DTT, 1% DMSORequired cofactors are added individually to each kinase reactionReaction Procedure:(i) Prepare indicated substrate in freshly prepared Base Reaction Buffer(ii) Deliver any required cofactors to the substrate solution above(iii) Deliver indicated kinase into the substrate solution and gently mix(iv) Deliver compounds in DMSO into the kinase reaction mixture(v) Deliver 33P-ATP (specific activity 0.01 μCi/μl final) into the reaction mixture to initiate the reaction.(vi) Incubate kinase reaction for 120 minutes at room temperature(vii) Reactions are spotted onto P81 ion exchange paper (Whatman #3698-915)(viii) Wash filters extensively in 0.1% phosphoric acid.(ix) Dry filters and measure counts in scintillation counterKinase Information:CHK-1 Genbank Accession # AF016582Recombinant full length construct, N-terminal GST tagged, purified from insect cells.No special measures were taken to activate this kinase.Final concentration in assay=0.5 nMSubstrate: CHKtidePeptide sequence: [[…]]Final concentration in assay=20 μM

Row | Compound | pIC50
1 | COc1cc(CCNC[C@H]2CCCNC2)c(Cl)cc1NC(=O)Nc1cnc(C#N)cn1 | 10.22
2 | COc1cc(CCNC[C@@H]2CCCNC2)c(Cl)cc1NC(=O)Nc1cnc(C#N)cn1 | 10.00
